{
  "source": "ChEMBL document CHEMBL6182920",
  "about": "“The Discovery of C7-Substituted Norbornyl Bisamides as RXFP1 Small Molecule Agonists” (J Med Chem, 2025)",
  "key": {"Relaxin receptor 1": {"target": "T1, Relaxin receptor 1 (Rattus norvegicus, UniProt Q6R6I6)", "T1 sequence (Q6R6I6 whole entry)": "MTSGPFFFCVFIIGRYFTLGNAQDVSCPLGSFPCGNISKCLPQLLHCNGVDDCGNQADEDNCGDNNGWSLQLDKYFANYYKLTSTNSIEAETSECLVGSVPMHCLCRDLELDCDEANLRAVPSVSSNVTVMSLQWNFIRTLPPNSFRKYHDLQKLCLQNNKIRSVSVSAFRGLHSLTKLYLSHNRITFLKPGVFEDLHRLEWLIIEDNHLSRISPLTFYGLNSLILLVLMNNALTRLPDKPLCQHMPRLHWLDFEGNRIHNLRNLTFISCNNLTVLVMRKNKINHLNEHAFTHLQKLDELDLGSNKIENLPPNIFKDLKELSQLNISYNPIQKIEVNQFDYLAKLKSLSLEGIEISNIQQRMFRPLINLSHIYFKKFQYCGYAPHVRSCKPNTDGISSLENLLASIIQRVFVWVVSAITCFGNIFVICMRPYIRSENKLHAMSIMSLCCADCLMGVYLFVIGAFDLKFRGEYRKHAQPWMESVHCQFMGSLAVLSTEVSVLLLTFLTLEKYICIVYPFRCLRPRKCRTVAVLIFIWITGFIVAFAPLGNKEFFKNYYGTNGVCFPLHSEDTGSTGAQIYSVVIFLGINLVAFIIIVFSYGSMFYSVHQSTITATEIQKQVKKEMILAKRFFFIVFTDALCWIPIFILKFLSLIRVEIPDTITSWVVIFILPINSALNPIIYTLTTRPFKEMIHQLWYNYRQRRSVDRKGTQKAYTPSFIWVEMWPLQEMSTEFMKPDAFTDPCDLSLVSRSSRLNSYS", "assay": "Agonist activity at rat RXFP1 stably expressed in HEK293 cells assessed as intracellular cAMP accumulation incubated for 30 mins by HTRF assay", "type": "cell-based"}, "[1]": {"assay": "Thermodynamic aqueous solubility of compound in phosphate buffer at pH 7.4 by reversed-phase ultrahigh pressure liquid chromatography", "type": "physicochemical", "details": "phosphate buffer, read-out: Therm_solubility"}, "[2]": {"assay": "Microsomal stability in human liver microsomes assessed as half life", "type": "ADME, Microsome"}, "[3]": {"assay": "Microsomal stability in mouse liver microsomes assessed as half life", "type": "ADME, Microsome"}, "[4]": {"assay": "Total AUC in Sprague-Dawley rat at 1 mg/kg, iv", "type": "ADME, organism-based", "details": "in vivo"}, "[5]": {"assay": "Half life in Sprague-Dawley rat at 1 mg/kg, iv", "type": "ADME, organism-based", "details": "in vivo"}, "[6]": {"assay": "Clearance in Sprague-Dawley rat at 1 mg/kg, iv", "type": "ADME, organism-based", "details": "in vivo"}, "[7]": {"assay": "Volume of distribution at steady state in Sprague-Dawley rat at 1 mg/kg, iv", "type": "ADME, organism-based", "details": "in vivo, read-out: Vdss"}, "Cytochrome P450 1A2": {"target": "T2, Cytochrome P450 1A2 (Homo sapiens, UniProt P05177)", "T2 sequence (P05177 whole entry)": "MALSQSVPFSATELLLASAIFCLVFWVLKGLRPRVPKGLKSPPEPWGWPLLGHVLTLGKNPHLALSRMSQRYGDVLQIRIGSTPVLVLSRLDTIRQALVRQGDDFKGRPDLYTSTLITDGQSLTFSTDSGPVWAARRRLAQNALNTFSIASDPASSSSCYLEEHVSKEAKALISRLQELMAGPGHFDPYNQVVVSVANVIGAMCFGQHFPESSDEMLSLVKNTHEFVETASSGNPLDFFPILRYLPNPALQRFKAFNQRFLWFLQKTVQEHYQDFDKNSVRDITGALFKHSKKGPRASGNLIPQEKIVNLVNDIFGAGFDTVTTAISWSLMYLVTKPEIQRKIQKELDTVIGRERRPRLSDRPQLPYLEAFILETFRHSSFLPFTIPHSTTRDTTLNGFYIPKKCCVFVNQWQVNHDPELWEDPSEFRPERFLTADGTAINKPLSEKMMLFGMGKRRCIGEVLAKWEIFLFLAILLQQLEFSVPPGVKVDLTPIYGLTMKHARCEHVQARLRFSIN", "assay": "Inhibition of CYP1A2 (unknown origin)"}, "Cytochrome P450 2C9": {"target": "Cytochrome P450 2C9 (Homo sapiens, UniProt P11712)", "sequence (P11712 whole entry)": "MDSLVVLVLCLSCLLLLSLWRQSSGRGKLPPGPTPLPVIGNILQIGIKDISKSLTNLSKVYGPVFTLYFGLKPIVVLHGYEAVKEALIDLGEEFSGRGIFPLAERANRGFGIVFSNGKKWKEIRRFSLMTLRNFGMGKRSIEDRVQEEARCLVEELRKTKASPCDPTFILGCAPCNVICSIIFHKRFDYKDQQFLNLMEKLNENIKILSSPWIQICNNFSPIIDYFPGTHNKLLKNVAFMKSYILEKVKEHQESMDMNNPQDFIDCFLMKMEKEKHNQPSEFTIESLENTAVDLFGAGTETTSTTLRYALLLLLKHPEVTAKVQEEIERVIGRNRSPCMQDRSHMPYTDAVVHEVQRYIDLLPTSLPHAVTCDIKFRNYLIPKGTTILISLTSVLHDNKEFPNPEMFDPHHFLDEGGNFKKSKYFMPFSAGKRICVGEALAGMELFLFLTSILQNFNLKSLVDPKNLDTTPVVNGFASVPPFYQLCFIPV", "assay": "Inhibition of CYP2C9 (unknown origin)"}, "Cytochrome P450 2D6": {"target": "Cytochrome P450 2D6 (Homo sapiens, UniProt P10635)", "sequence (P10635 whole entry)": "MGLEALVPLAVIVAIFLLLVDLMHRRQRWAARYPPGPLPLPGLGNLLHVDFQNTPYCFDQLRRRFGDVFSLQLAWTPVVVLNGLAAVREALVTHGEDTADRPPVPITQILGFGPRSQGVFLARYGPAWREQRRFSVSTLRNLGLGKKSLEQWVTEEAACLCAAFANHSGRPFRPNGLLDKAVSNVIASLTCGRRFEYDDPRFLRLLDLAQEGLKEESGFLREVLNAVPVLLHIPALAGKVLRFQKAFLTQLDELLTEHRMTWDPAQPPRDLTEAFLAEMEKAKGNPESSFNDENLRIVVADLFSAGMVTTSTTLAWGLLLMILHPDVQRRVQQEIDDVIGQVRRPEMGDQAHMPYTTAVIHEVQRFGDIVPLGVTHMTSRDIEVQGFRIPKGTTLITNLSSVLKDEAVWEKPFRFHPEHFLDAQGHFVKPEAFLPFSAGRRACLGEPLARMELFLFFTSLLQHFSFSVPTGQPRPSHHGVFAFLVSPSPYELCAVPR", "assay": "Inhibition of CYP2D6 (unknown origin)"}, "[8]": {"target": "T3, Nuclear receptor subfamily 1 group I member 2 (Homo sapiens, UniProt O75469)", "T3 sequence (O75469 whole entry)": "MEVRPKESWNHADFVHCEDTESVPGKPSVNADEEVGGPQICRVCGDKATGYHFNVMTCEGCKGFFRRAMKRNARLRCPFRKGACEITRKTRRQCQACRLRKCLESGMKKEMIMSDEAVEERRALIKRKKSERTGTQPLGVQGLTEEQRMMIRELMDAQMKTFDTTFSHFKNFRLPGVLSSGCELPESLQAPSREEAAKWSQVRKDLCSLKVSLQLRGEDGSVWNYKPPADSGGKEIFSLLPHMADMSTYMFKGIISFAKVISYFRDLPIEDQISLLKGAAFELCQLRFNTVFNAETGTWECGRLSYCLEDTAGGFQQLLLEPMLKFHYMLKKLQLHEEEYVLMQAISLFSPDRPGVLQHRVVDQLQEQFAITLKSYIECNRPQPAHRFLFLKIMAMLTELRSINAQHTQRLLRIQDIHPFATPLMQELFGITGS", "assay": "Activation of PXR (unknown origin)"}, "Nav1.5": {"target": "Nav1.5 (Homo sapiens, UniProt Q14524)", "sequence (Q14524 whole entry)": "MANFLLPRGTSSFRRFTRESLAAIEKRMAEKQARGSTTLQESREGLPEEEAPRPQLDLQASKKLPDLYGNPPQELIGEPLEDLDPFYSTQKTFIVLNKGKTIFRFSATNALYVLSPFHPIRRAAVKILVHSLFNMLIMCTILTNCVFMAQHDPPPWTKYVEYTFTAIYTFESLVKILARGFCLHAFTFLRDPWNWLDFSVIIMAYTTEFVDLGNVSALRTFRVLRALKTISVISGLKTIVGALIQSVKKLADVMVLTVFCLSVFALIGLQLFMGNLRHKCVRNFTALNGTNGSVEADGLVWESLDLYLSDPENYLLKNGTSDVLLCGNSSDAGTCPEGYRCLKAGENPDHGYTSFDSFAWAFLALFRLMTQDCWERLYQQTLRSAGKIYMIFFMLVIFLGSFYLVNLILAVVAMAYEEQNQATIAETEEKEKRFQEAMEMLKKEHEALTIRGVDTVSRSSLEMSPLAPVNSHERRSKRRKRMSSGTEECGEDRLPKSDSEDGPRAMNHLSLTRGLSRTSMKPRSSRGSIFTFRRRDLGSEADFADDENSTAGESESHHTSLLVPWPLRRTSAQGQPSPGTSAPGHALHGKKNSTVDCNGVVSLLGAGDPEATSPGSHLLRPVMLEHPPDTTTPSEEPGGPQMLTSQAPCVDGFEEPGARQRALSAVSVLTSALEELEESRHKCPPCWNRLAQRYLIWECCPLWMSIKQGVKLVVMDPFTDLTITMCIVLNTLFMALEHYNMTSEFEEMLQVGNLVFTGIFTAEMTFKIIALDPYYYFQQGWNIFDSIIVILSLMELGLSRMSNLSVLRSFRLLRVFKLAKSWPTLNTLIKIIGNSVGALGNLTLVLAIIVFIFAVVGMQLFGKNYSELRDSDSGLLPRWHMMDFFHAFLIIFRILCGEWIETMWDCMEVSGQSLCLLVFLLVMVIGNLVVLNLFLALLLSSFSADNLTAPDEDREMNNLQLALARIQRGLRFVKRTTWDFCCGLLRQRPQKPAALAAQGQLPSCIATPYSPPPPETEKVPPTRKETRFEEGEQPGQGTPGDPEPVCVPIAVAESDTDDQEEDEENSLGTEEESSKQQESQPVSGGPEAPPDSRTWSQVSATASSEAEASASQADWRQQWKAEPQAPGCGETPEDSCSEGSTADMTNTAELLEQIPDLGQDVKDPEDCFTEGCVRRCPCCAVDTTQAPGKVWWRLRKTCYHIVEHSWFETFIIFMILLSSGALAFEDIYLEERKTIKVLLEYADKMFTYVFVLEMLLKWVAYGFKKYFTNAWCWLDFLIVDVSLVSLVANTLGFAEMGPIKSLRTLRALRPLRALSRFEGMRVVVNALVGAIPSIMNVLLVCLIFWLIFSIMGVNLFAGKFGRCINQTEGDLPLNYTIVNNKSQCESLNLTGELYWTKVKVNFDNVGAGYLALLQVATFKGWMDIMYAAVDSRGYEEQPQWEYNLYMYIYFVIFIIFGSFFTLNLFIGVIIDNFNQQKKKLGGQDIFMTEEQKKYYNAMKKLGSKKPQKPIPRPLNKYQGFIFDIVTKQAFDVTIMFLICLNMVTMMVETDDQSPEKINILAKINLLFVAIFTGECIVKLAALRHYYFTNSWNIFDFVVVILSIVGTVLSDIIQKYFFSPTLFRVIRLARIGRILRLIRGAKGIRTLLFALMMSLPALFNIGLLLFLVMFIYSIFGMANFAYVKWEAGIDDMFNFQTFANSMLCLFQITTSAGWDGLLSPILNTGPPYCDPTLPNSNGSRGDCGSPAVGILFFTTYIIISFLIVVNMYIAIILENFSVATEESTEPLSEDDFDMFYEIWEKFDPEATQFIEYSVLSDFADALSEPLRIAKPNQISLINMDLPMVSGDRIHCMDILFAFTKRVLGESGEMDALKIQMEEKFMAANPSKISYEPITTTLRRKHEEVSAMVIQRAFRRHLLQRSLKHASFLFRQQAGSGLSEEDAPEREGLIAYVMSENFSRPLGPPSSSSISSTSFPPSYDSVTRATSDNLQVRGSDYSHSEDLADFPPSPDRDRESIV", "assay": "Inhibition of human Nav1.5 at 10 uM by patch clamp assay relative to control"}, "hERG": {"target": "hERG (Homo sapiens, UniProt Q12809)", "sequence (Q12809 whole entry)": "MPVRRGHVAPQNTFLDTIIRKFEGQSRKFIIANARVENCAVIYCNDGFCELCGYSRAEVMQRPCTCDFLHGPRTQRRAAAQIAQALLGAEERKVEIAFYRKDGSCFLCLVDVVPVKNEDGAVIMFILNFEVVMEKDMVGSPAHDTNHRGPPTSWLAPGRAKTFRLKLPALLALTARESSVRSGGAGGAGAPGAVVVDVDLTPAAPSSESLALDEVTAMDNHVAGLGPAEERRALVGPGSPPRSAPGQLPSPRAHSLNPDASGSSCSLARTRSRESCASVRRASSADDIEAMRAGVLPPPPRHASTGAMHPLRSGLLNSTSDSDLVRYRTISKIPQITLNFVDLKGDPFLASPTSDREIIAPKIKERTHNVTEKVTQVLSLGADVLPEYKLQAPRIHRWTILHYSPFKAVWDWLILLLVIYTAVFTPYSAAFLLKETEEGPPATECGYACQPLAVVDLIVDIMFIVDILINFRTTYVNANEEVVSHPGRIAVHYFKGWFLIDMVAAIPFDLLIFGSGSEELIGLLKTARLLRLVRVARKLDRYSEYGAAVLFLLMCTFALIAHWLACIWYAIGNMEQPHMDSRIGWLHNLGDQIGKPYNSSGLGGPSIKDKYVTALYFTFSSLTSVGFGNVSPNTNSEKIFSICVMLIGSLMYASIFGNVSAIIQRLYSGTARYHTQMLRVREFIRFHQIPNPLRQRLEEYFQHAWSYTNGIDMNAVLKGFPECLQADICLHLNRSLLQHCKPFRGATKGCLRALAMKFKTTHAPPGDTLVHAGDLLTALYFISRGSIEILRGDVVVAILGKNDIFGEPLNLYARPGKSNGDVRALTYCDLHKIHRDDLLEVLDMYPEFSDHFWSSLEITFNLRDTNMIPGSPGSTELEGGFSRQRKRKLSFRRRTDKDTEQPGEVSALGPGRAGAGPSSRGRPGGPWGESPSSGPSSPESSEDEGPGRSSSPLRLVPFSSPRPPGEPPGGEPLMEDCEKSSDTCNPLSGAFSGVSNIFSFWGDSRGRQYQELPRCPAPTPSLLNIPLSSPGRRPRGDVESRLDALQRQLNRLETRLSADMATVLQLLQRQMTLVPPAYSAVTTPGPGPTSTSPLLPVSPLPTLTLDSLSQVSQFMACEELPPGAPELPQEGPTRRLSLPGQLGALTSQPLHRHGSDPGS", "assay": "Inhibition of hERG (unknown origin) at 30 uM by patch clamp assay relative to control"}, "L-type calcium channel": {"target": "L-type calcium channel (Homo sapiens, UniProt O60840+Q01668+Q13698+Q13936)", "assay": "Inhibition of L-type calcium channel (unknown origin) at 10 uM by patch clamp assay relative to control"}, "Rattus norvegicus": {"tested_on": "Rattus norvegicus", "assay": "Chronotropic effect in isoflurane-anesthetized male naive Sprague-Dawley rat model assessed as increase in heart rate at 5 mg/kg/min, iv measured after 60 mins", "type": "functional", "details": "1 h"}, "Mus musculus": {"tested_on": "Mus musculus", "assay": "Expansion of interpubic ligament in estrogen-treated female C57BL/6 mouse assessed as symphysis widening at 25 mg/kg, iv administered on day 7 and measured on day 8 by microCT analysis (reference value: 17.6 %)", "type": "functional", "details": "time 1 day"}},
  "note": "pEC50, pIC50: −log10 of the molar value.",
  "data": [
    {"smiles": "CNC(=O)OC(C(=O)O)c1ccc(F)c(-c2ccc(OC)c(C(=O)N[C@H]3[C@@H](C(=O)Nc4ccc(F)c(C(F)(F)F)c4)[C@H]4CC[C@@H]3/C4=C\\C3CC3)c2)c1", "note": "(stereo in doubt; 39)", "values": [
      {"measurement": "pEC50", "setting": "Relaxin receptor 1", "value": 7.35},
      {"measurement": "solubility thermodynamic", "setting": "[1]", "value": 130, "unit": "µg/mL"},
      {"measurement": "half-life", "setting": "[2]", "value": "> 2", "unit": "h"},
      {"measurement": "half-life", "setting": "[3]", "value": "> 2", "unit": "h"},
      {"measurement": "AUC", "setting": "[4]", "value": 9.6, "unit": "µM·h"},
      {"measurement": "half-life", "setting": "[5]", "value": 4.43, "unit": "h"},
      {"measurement": "clearance", "setting": "[6]", "value": 2.5, "unit": "mL/min/kg"},
      {"measurement": "Vd", "setting": "[7]", "value": 0.09, "unit": "L/kg"},
      {"measurement": "pIC50", "setting": "Cytochrome P450 1A2", "value": 5.34},
      {"measurement": "pIC50", "setting": "Cytochrome P450 2C9", "value": 5.40},
      {"measurement": "pIC50", "setting": "Cytochrome P450 2D6", "value": "< 4.70"},
      {"measurement": "pEC50", "setting": "[8]", "value": "< 4.30"},
      {"measurement": "inhibition at 10 µM", "setting": "Nav1.5", "value": 59, "unit": "%"},
      {"measurement": "inhibition at 30 µM", "setting": "hERG", "value": 7, "unit": "%"},
      {"measurement": "inhibition at 10 µM", "setting": "L-type calcium channel", "value": 33, "unit": "%"},
      {"measurement": "Activity", "setting": "Rattus norvegicus", "value": 25, "unit": "%"},
      {"measurement": "Activity", "setting": "Mus musculus", "value": 500.4, "unit": "%"}
    ]}
  ]
}
